Assay results from ChEMBL document CHEMBL5523749, “Amphiphilic Heparinoids as Potent Antiviral Agents against SARS-CoV-2” (J Med Chem, 2024).
pKd: −log10 of the molar value. ≈ marks a conversion by molar mass, not a printed value.

What was measured:
[1] = system: Respiratory syncytial virus; assay: Antiviral activity against RSV A2 strain infected in HEp-2 cells assessed as reduction in plaque number measured after 3 days incubation; conditions: human respiratory syncytial virus, A2, HEp-2, 72 h
SARS-CoV-2 [2] = assay: microbe, parasite or virus in culture; conditions: Severe acute respiratory syndrome coronavirus 2, D614, Vero C1008
Description: (§1) Antiviral activity against SARS-CoV-2 D614 isolates infected in African green monkey Vero E6 cells assessed as reduction in plaque formation treated for 1 hr prior to infection with cells incubated for 30 mins by plaque reduction neutralization test

Human alphaherpesvirus 2 = assay: Antiviral activity against HSV2 infected in CMK AH1 cells assessed as reduction in plaque number measured after 2 days incubation; conditions: Human alphaherpesvirus 2, CMK AH1, 48 h
Spike glycoprotein = Spike glycoprotein (Severe acute respiratory syndrome coronavirus 2, UniProt P0DTC2); assay: Binding affinity to RBD domain of SARS-CoV-2 spike protein assessed as dissociation constant by Isothermal Titration Calorimetry
SARS-CoV-2 [3] = type: functional, organism-based, Severe acute respiratory syndrome coronavirus 2, G614, Vero E6
SARS-CoV-2 [4] = conditions: vero e6
Description: as §1

Heparanase = target: T1, Heparanase (Homo sapiens, UniProt Q9Y251); assay: Inhibition of recombinant human heparanase expressed in Insect cells assessed as fondaparinux cleavage by measuring disaccharide product incubated for 18 to 21 hrs; conditions: insect cell
T1 sequence (Q9Y251 whole entry): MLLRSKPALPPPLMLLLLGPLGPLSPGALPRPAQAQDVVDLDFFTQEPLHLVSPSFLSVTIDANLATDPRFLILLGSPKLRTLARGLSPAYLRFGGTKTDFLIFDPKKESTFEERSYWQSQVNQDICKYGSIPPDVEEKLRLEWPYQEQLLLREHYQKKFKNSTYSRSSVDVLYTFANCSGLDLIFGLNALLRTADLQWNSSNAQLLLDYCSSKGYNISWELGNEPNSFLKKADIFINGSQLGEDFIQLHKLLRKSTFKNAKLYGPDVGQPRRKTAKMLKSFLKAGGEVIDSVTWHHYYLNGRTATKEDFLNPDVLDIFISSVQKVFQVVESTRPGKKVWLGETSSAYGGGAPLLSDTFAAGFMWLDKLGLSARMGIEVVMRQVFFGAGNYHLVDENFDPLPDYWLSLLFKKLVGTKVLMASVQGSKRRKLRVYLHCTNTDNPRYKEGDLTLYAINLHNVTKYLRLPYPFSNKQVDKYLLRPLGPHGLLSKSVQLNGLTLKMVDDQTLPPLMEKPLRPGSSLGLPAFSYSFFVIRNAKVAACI

[5] = Severe acute respiratory syndrome coronavirus 2, G614, Vero C1008, read-out: IC50

Row | Structure (SMILES) | IC50 (SARS-CoV-2 [2]) | pKd (Spike glycoprotein) | IC50 (SARS-CoV-2 [3]; [5]) | IC50 (SARS-CoV-2 [4]) | further results
1 | CC(C)CCC[C@@H](C)[C@H]1CC[C@H]2[C@@H]3CC[C@H]4C[C@@H](O[C@@H]5O[C@H](COS(=O)(=O)[O-])[C@@H](O[C@H]6O[C@H](COS(=O)(=O)[O-])[C@@H](O[C@H]7O[C@H](COS(=O)(=O)[O-])[C@@H](O[C@H]8O[C@H](COS(=O)(=O)[O-])[C@@H](OS(=O)(=O)[O-])[C@H](OS(=O)(=O)[O-])[C@H]8OS(=O)(=O)[O-])[C@H](OS(=O)(=O)[O-])[C@H]7OS(=O)(=O)[O-])[C@H](OS(=O)(=O)[O-])[C@H]6OS(=O)(=O)[O-])[C@H](OS(=O)(=O)[O-])[C@H]5OS(=O)(=O)[O-])CC[C@]4(C)[C@H]3CC[C@]12C.[Na+].[Na+].[Na+].[Na+].[Na+].[Na+].[Na+].[Na+].[Na+].[Na+].[Na+].[Na+].[Na+] | 29.6 µg/mL | 5.04 | – | – | IC50 [1]: ~1 µg/mL; IC50 (Human alphaherpesvirus 2): ~1 µg/mL
2 | O=C(CCCCCCCCCCn1cc(CNc2ccc([N+](=O)[O-])c3nonc23)nn1)NCCCCCCO[C@@H]1O[C@H](COS(=O)(=O)[O-])[C@@H](O[C@H]2O[C@H](COS(=O)(=O)[O-])[C@@H](O[C@H]3O[C@H](COS(=O)(=O)[O-])[C@@H](O[C@H]4O[C@H](COS(=O)(=O)[O-])[C@@H](OS(=O)(=O)[O-])[C@H](OS(=O)(=O)[O-])[C@H]4OS(=O)(=O)[O-])[C@H](OS(=O)(=O)[O-])[C@H]3OS(=O)(=O)[O-])[C@H](OS(=O)(=O)[O-])[C@H]2OS(=O)(=O)[O-])[C@H](OS(=O)(=O)[O-])[C@H]1OS(=O)(=O)[O-].[Na+].[Na+].[Na+].[Na+].[Na+].[Na+].[Na+].[Na+].[Na+].[Na+].[Na+].[Na+].[Na+] | – | – | 16.1 µg/mL | Not Active | –
3 | CC(C)CCC[C@@H](C)[C@H]1CC[C@H]2[C@@H]3CC[C@H]4C[C@@H](O[C@@H]5O[C@@H](C(=O)O)[C@@H](O[C@@H]6O[C@@H](C(=O)O)[C@@H](OS(=O)(=O)O)[C@H](O)[C@H]6OS(=O)(=O)O)[C@H](O)[C@H]5OS(=O)(=O)O)CC[C@]4(C)[C@H]3CC[C@]12C | 33.7 µg/mL (≈ 34.3 µM) | – | – | – | IC50 (Heparanase): Not Active
4 | CCCCCCCCCCCCCCCCCC(=O)NCCCO[C@@H]1O[C@H](COS(=O)(=O)[O-])[C@@H](O[C@H]2O[C@H](COS(=O)(=O)[O-])[C@@H](O[C@H]3O[C@H](COS(=O)(=O)[O-])[C@@H](O[C@H]4O[C@H](COS(=O)(=O)[O-])[C@@H](O[C@H]5O[C@H](COS(=O)(=O)[O-])[C@@H](O[C@H]6O[C@H](COS(=O)(=O)[O-])C(OS(=O)(=O)[O-])[C@H](OS(=O)(=O)[O-])[C@H]6OS(=O)(=O)[O-])[C@H](OS(=O)(=O)[O-])[C@H]5OS(=O)(=O)[O-])[C@H](OS(=O)(=O)[O-])[C@H]4OS(=O)(=O)[O-])[C@H](OS(=O)(=O)[O-])[C@H]3OS(=O)(=O)[O-])[C@H](OS(=O)(=O)[O-])[C@H]2OS(=O)(=O)[O-])[C@H](OS(=O)(=O)[O-])[C@H]1OS(=O)(=O)[O-].[Na+].[Na+].[Na+].[Na+].[Na+].[Na+].[Na+].[Na+].[Na+].[Na+].[Na+].[Na+].[Na+].[Na+].[Na+].[Na+].[Na+].[Na+].[Na+] (stereo not given in full) | – | – | – | Not Active | IC50 (SARS-CoV-2 [3]; vero e6): Not Active
5 | CC(C)CCC[C@@H](C)[C@H]1CC[C@H]2[C@@H]3CC[C@H]4C[C@@H](O[C@H]5O[C@H](COS(=O)(=O)[O-])[C@@H](O[C@H]6O[C@H](COS(=O)(=O)[O-])[C@@H](O[C@H]7O[C@H](COS(=O)(=O)[O-])[C@@H](O[C@H]8O[C@H](COS(=O)(=O)[O-])[C@@H](O[C@H]9O[C@H](COS(=O)(=O)[O-])[C@@H](O[C@H]%10O[C@H](COS(=O)(=O)[O-])[C@@H](OS(=O)(=O)[O-])[C@H](OS(=O)(=O)[O-])[C@H]%10OS(=O)(=O)[O-])[C@H](OS(=O)(=O)[O-])[C@H]9OS(=O)(=O)[O-])[C@H](OS(=O)(=O)[O-])[C@H]8OS(=O)(=O)[O-])[C@H](OS(=O)(=O)[O-])[C@H]7OS(=O)(=O)[O-])[C@H](OS(=O)(=O)[O-])[C@H]6OS(=O)(=O)[O-])[C@H](OS(=O)(=O)[O-])[C@H]5OS(=O)(=O)[O-])CC[C@]4(C)[C@H]3CC[C@]12C.[Na+].[Na+].[Na+].[Na+].[Na+].[Na+].[Na+].[Na+].[Na+].[Na+].[Na+].[Na+].[Na+].[Na+].[Na+].[Na+].[Na+].[Na+].[Na+] | 12.2 µg/mL | 5.73 | 21.7 µg/mL | – | –
6 | [N-]=[N+]=NCCCCCCCCCCC(=O)NCCCCCCCCCCCO[C@@H]1O[C@H](COS(=O)(=O)[O-])[C@@H](O[C@H]2O[C@H](COS(=O)(=O)[O-])[C@@H](O[C@H]3O[C@H](COS(=O)(=O)[O-])[C@@H](O[C@H]4O[C@H](COS(=O)(=O)[O-])[C@@H](OS(=O)(=O)[O-])[C@H](OS(=O)(=O)[O-])[C@H]4OS(=O)(=O)[O-])[C@H](OS(=O)(=O)[O-])[C@H]3OS(=O)(=O)[O-])[C@H](OS(=O)(=O)[O-])[C@H]2OS(=O)(=O)[O-])[C@H](OS(=O)(=O)[O-])[C@H]1OS(=O)(=O)[O-].[Na+].[Na+].[Na+].[Na+].[Na+].[Na+].[Na+].[Na+].[Na+].[Na+].[Na+].[Na+].[Na+] | – | – | 84.1 µg/mL | Not Active | –
